Measured values reported in patent US10533207B2, “Bioactivity testing structure for single cell tracking using gelling agents” (QuantaMatrix Inc., priority 2014, dated 2020).
Values after ≈ are worked out from the molar mass of the structure shown.

Assays:
Type in all cases: cell-based, Mycobacterium tuberculosis
[1] = system: M. tuberculosis H37Rv; experiment: DST of MTB using the DAC system (MIC from time-lapse images); settings: for MIC: Mycobacterium tuberculosis, 120 h, images over 5 days; for susceptibility of the strain (in words): from the MIC data
[2] = system: MDR-TB clinical strain; experiment: as above; settings: for susceptibility determined from the MIC data and the critical concentrations: DAC system, MDR strain; for MIC: Mycobacterium tuberculosis, 120 h
[3] = system: XDR-TB clinical strain; experiment: as above; settings: for susceptibility determined from the MIC data and the critical concentrations: DAC system, XDR strain; for MIC: Mycobacterium tuberculosis, 120 h
[4] = system: standard strain H37Rv; experiment: Inoculum effect test, DST on the DAC system
[5] = system: clinical strain 1088; experiment: Inoculum effect on clinical strains on the DAC system
Experimental: (§1) Mycobacterium tuberculosis identified by ZN staining and grown from an L-J slope or MGIT tube and was subjected to DST. For the preparation of inoculation from the LJ culture, colonies up to 14 days were extracted from the grown culture. The colonies were shaken with glass beads to crush large lumps. To obtain a high density (˜5×10^9 CFU/ml), the suspension was centrifuged at 3000 g for 10 min and pellets were resuspended in sterile PBS. Subsequently, the suspension was added to liquid agarose, inoculated in a bacteria-agarose mixture within the range of 10^1 to 5×10^8 CFU/ml, and loaded in the main channel After solidification, 7H9 broth containing each antibiotic was applied to the chamber. All bacterial cells were imaged with an inverted optical microscope (IS71, Olympus).
(§2) Clinical strains express various phenotypes, particularly, in drug susceptibility. […] Rifampicin, isoniazid, streptomycin, and ethambutol were used as test drugs. For the 131 strains, the highest concentration was 1.3×10^9.

[6] = system: clinical strain 131; experiment: as above
Experimental: as §1, §2

[7] = system: clinical strain CMS; experiment: as above
Experimental: as §1, §2

[8] = system: clinical strain CYD; experiment: as above
Experimental: as §1, §2

[9] = system: clinical strain KHS; experiment: as above
Experimental: as §1, §2

[10] = system: clinical strain MSH; experiment: as above
Experimental: as §1, §2

[11] = inoculum 10^3/mL, DAC, unit inferred
[12] = inoculum 10^4/mL, DAC, unit inferred
[13] = inoculum 10^5/mL, DAC, unit inferred
[14] = inoculum 10^6/mL, MAC2, unit inferred
[15] = inoculum 10^7/mL, MAC2, unit inferred

Compound | susceptibility determined from the MIC data and the critical concentrations [1] | MIC [1] [µg/mL] | susceptibility of the strain (in words) [1] | susceptibility determined from the MIC data and the critical concentrations [2] | MIC [2] [µg/mL] | susceptibility determined from the MIC data and the critical concentrations [3] | MIC [3] [µg/mL] | MIC (DAC) [4, 11] [µg/mL] | MIC (DAC) [4, 12] [µg/mL] | MIC (DAC) [4, 13] [µg/mL] | MIC (DAC) [4, 14] [µg/mL] | MIC (DAC) [4, 15] [µg/mL] | MIC (DAC) [5, 11] [µg/mL] | MIC (DAC) [5, 12] [µg/mL] | MIC (DAC) [5, 13] [µg/mL] | MIC (DAC) [5, 14] [µg/mL] | MIC (DAC) [5, 15] [µg/mL] | MIC (DAC) [6, 11] [µg/mL] | MIC (DAC) [6, 12] [µg/mL] | MIC (DAC) [6, 13] [µg/mL] | also measured
CC[C@@H](CO)NCCN[C@@H](CC)CO [EMB, ethambutol] | S | 5 (≈ 24.5 µM) | sensitive | R | > 10 | R | 10 (≈ 48.9 µM) | 2.5 (≈ 12.2 µM) | 1.25 (≈ 6.12 µM) | 1.25 (≈ 6.12 µM) | 2.5 (≈ 12.2 µM) | 2.5 (≈ 12.2 µM) | 10 (≈ 48.9 µM) | 10 (≈ 48.9 µM) | 10 (≈ 48.9 µM) | ≥ 10 | ≥ 10 | > 10 | > 10 | > 10 | MIC (DAC) [6, 14]: > 10 µg/mL; MIC (DAC) [6, 15]: > 10 µg/mL; MIC (DAC) [7, 12]: 1.25 µg/mL (≈ 6.12 µM); MIC (DAC) [7, 13]: 1.25 µg/mL (≈ 6.12 µM); MIC (DAC) [7, 14]: 2.5 µg/mL (≈ 12.2 µM); MIC (DAC) [7, 15]: 2.5 µg/mL (≈ 12.2 µM); MIC (DAC) [8, 12]: 2.5 µg/mL (≈ 12.2 µM); MIC (DAC) [8, 13]: 2.5 µg/mL (≈ 12.2 µM); MIC (DAC) [8, 14]: 2.5 µg/mL (≈ 12.2 µM); MIC (DAC) [8, 15]: 5 µg/mL (≈ 24.5 µM); MIC (DAC) [9, 12]: 2.5 µg/mL (≈ 12.2 µM); MIC (DAC) [9, 13]: 1.25 µg/mL (≈ 6.12 µM); MIC (DAC) [9, 14]: 2.5 µg/mL (≈ 12.2 µM); MIC (DAC) [9, 15]: 2.5 µg/mL (≈ 12.2 µM); MIC (DAC) [10, 12]: 1.25 µg/mL (≈ 6.12 µM); MIC (DAC) [10, 13]: 2.5 µg/mL (≈ 12.2 µM); MIC (DAC) [10, 14]: 2.5 µg/mL (≈ 12.2 µM); MIC (DAC) [10, 15]: 1.25 µg/mL (≈ 6.12 µM)
NNC(=O)c1ccncc1 [INH, isoniazid] | S | 0.05 (≈ 0.365 µM) | sensitive | R | > 0.2 | R | > 0.2 | 0.05 (≈ 0.365 µM) | 0.05 (≈ 0.365 µM) | 0.05 (≈ 0.365 µM) | 0.05 (≈ 0.365 µM) | 0.05 (≈ 0.365 µM) | ≥ 0.2 | 0.2 (≈ 1.46 µM) | 0.2 (≈ 1.46 µM) | ≥ 0.2 | ≥ 0.2 | 0.2 (≈ 1.46 µM) | > 0.2 | > 0.2 | MIC (DAC) [6, 14]: > 0.2 µg/mL; MIC (DAC) [6, 15]: > 0.2 µg/mL; MIC (DAC) [7, 12]: 0.05 µg/mL (≈ 0.365 µM); MIC (DAC) [7, 13]: 0.025 µg/mL (≈ 0.182 µM); MIC (DAC) [7, 14]: 0.025 µg/mL (≈ 0.182 µM); MIC (DAC) [7, 15]: 0.05 µg/mL (≈ 0.365 µM); MIC (DAC) [8, 12]: 0.05 µg/mL (≈ 0.365 µM); MIC (DAC) [8, 13]: 0.025 µg/mL (≈ 0.182 µM); MIC (DAC) [8, 14]: 0.025 µg/mL (≈ 0.182 µM); MIC (DAC) [8, 15]: 0.025 µg/mL (≈ 0.182 µM); MIC (DAC) [9, 12]: 0.05 µg/mL (≈ 0.365 µM); MIC (DAC) [9, 13]: 0.025 µg/mL (≈ 0.182 µM); MIC (DAC) [9, 14]: 0.025 µg/mL (≈ 0.182 µM); MIC (DAC) [9, 15]: 0.025 µg/mL (≈ 0.182 µM); MIC (DAC) [10, 12]: 0.025 µg/mL (≈ 0.182 µM); MIC (DAC) [10, 13]: 0.025 µg/mL (≈ 0.182 µM); MIC (DAC) [10, 14]: 0.025 µg/mL (≈ 0.182 µM); MIC (DAC) [10, 15]: 0.025 µg/mL (≈ 0.182 µM)
